The molecules below were run against T1, p53 Y220C (Homo sapiens, UniProt P04637, Y220C) (assay: In vitro DNA binding activity assay (HTRF / TR-FRET): stabilization of p53 Y220C and increase of its DNA binding activity). Settings: recombinant His-tagged p53 Y220C DNA binding domain (aa 94-312), biotin-labeled consensus DNA, incubated at 27° C. or 29° C. for 60 min.
T1 construct: The recombinant protein was a truncation mutant containing only amino acids 94-312 of p53; made in house; host or cells: E. coli
Assay type: biochemical
In short: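 His-tagged p53 Y220C, E. coli-expressed, binding biotin-labeled consensus DNA measured by HTRF (anti-His-APC, streptavidin-europium). Compounds from 4.5 mM DMSO stocks, 3-fold serial dilutions; incubations at room temperature 15 min, then 20 min. SC150 = concentration raising DNA binding by 50%.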

T1 sequence (P04637 94-312, change not shown): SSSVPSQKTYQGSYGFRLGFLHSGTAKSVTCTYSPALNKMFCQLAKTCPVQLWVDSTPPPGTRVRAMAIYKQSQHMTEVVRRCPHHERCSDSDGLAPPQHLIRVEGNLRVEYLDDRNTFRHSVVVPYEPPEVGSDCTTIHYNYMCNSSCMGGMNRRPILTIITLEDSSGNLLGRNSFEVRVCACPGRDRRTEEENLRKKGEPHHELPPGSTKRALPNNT

SC150 (concentration of the compound required to increase the DNA binding activity by 50%) | Structure (SMILES)
++ (++ = 0.05 μM ≤ SC150 < 0.1 μM) | CNc1cc(S(C)(=O)=O)ccc1OCC#Cc1cc2c(N[C@H]3CC[C@@H](N(C)C)CC3)cccc2n1CC(F)(F)F [Compound 108A, (1S,4S)-N^4-(2-{3-[4-methanesulfonyl-2-(methylamino)phenoxy]prop-1-yn-1-yl}-1-(2,2,2-trifluoroethyl)-1H-indol-4-yl)-N^1,N^1-dimethylcyclohexane-1,4-diamine]
+++ (+++ = 0.1 μM ≤ SC150 < 0.2 μM) | CN(C)[C@H]1CC[C@@H](Nc2cccc3c2cc(C#CCOc2ccc(S(C)(=O)=O)cc2N)n3CC(F)(F)F)CC1 [Compound 94A, (1S,4S)-N4-{2-[3-(2-amino-4-methane-sulfonylphenoxy)prop-1-yn-1-yl]-1-(2,2,2-trifluoroethyl)-1H-indol-4-yl}-N^1,N^1-dimethylcyclohexane-1,4-diamine]
+ (+ = 0 μM ≤ SC150 < 0.05 μM) | COc1cc(S(=O)(=O)N(C)C)ccc1NCC#Cc1cc2c(NC3CCN(C(C)=O)CC3)cccc2n1CC(F)(F)F [Compound 755A, 4-[(3-{4-[(1-acetylpiperidin-4-yl)amino]-1-(2,2,2-trifluoroethyl)-1H-indol-2-yl}prop-2-yn-1-yl)amino]-3-methoxy-N,N-dimethylbenzene-1-sulfonamide]
+ (+ = 0 μM ≤ SC150 < 0.05 μM) | COc1cc(S(C)(=O)=O)ccc1NCC#Cc1cc2c(NC3CCN(C(=O)C(C)O)CC3)cccc2n1CC(F)(F)F (centres unmarked) [Compound 742A]
+ (+ = 0 μM ≤ SC150 < 0.05 μM) | CNC(=O)c1cc(OC)c(NCC#Cc2cc3c(N[C@H]4CC[C@H](N(C)C)CC4)cccc3n2CC(F)(F)F)cc1F [Compound 136A, 2-fluoro-5-methoxy-N-methyl-4-{[3-(4-{[(1R,4R)-4-(dimethylamino)cyclohexyl]amino}-1-(2,2,2-trifluoroethyl)-1H-indol-2-yl)prop-2-yn-1-yl]amino}benzamide]
+ (+ = 0 μM ≤ SC150 < 0.05 μM) | CCS(=O)(=O)c1ccc(NCC#Cc2cc3c(N[C@H]4CC[C@H](N(C)C)CC4)cccc3n2CC(F)(F)F)c(OC)c1 [Compound 119A, (1R,4R)—N^4-[2-(3-{[4-(ethanesulfonyl)-2-methoxyphenyl]amino}prop-1-yn-1-yl)-1-(2,2,2-trifluoroethyl)-1H-indol-4-yl]-N^1,N^1-dimethylcyclohexane-1,4-diamine]
+ (+ = 0 μM ≤ SC150 < 0.05 μM) | COc1cc(S(C)(=O)=O)ccc1NCC#Cc1cc2c(NC3CC4(COC4)C3)cccc2n1CC(F)(F)F [Compound 20A, 2-{3-[(4-methane-sulfonyl-2-methoxy-phenyl)amino]prop-1-yn-1-yl}-N-{2-oxaspiro[3.3]heptan-6-yl}-1-(2,2,2-trifluoroethyl)-1H-indol-4-amine]

The next lines start with the molecule.

Structure (SMILES) | SC150 (concentration of the compound required to increase the DNA binding activity by 50%)
COc1cc(S(N)(=O)=O)ccc1NCC#Cc1cc2c(N[C@H]3CC[C@H](N4CC5(CCCOC5)C4)CC3)cccc2n1CC(F)(F)F [Compound 320A, 3-methoxy-4-{[3-(4-{[(1R,4R)-4-{6-oxa-2-azaspiro[3.5]nonan-2-yl}cyclohexyl]amino}-1-(2,2,2-trifluoro-ethyl)-1H-indol-2-yl)prop-2-yn-1-yl]amino} benzene-1-sulfonamide] | + (+ = 0 μM ≤ SC150 < 0.05 μM)
COc1cc(S(C)(=O)=O)ccc1NCC#Cc1cc2c(N[C@@H]3CCC4(C[C@@H]3F)OCCO4)cccc2n1CC(F)(F)F [Compound 870A, N-[(7S,8R)-7-fluoro-1,4-dioxaspiro[4.5]decan-8-yl]-2-{3-[(4-methanesulfonyl-2-methoxyphenyl)amino]prop-1-yn-1-yl}-1-(2,2,2-trifluoroethyl)-1H-indol-4-amine] | + (+ = 0 μM ≤ SC150 < 0.05 μM)
CCOc1cc(C(N)=O)ccc1NCC#Cc1cc2c(N[C@@H]3CCN(C)C[C@@H]3F)cccc2n1CC(F)(F)F [Compound 1059A, 3-ethoxy-4-{[3-(4-{[(3S,4R)-3-fluoro-1-methylpiperidin-4-yl]amino}-1-(2,2,2-trifluoroethyl)-1H-indol-2-yl)prop-2-yn-1-yl]amino}benzamide] | + (+ = 0 μM ≤ SC150 < 0.05 μM)
CCC(=O)NS(=O)(=O)c1ccc(NCC#Cc2cc3c(N[C@H]4CC[C@@H](N5CC6(COC6)C5)CC4)cccc3n2CC(F)(F)F)c(OC)c1 [Compound 207A, N-(3-methoxy-4-{[3-(4-{[(1S,4S)-4-{2-oxa-6-azaspiro[3.3]heptan-6-yl}cyclo-hexyl]amino}-1-(2,2,2-trifluoroethyl)-1H-indol-2-yl)prop-2-yn-1-yl]amino}benzene-sulfonyl)propanamide] | + (+ = 0 μM ≤ SC150 < 0.05 μM)
CNS(=O)(=O)c1ccc(NCC#Cc2cc3c(NC4CCN(C)CC4)cccc3n2CC(F)(F)F)c(OC)c1 [Compound 484A, 3-methoxy-N-methyl-4-[(3-{4-[(1-methylpiperidin-4-yl)amino]-1-(2,2,2-trifluoroethyl)-1H-indol-2-yl}prop-2-yn-1-yl)amino]benzene-1-sulfonamide] | + (+ = 0 μM ≤ SC150 < 0.05 μM)
COc1cc(S(C)(=O)=O)ccc1NCC#Cc1cc2c(N[C@@H]3CN(C)CC[C@@H]3F)cccc2n1CC(F)(F)F (racemic) [Compound 1067A, rac-N-[(3R,4S)-4-fluoro-1-methylpiperidin-3-yl]-2-{3-[(4-methanesulfonyl-2-methoxyphenyl)amino]prop-1-yn-1-yl}-1-(2,2,2-trifluoroethyl)-1H-indol-4-amine] | + (+ = 0 μM ≤ SC150 < 0.05 μM)
CN1CC[C@H](Nc2cccc3c2cc(C#CCNc2ccc(S(C)(=O)=O)cc2OCF)n3CC(F)(F)F)[C@H](F)C1 [Compound 841A] | + (+ = 0 μM ≤ SC150 < 0.05 μM)
COCC(CN1CCC(Nc2cccc3c2cc(C#CCNc2ccc(S(C)(=O)=O)cc2OC)n3CC(F)(F)F)CC1)OC(C)=O (centres unmarked) [Compound 593A, 1-{4-[(2-{3-[(4-methanesulfonyl-2-methoxyphenyl)amino]prop-1-yn-1-yl}-1-(2,2,2-trifluoroethyl)-1H-indol-4-yl)amino]piperidin-1-yl}-3-methoxypropan-2-yl acetate] | + (+ = 0 μM ≤ SC150 < 0.05 μM)
CN1CC[C@@H](Nc2cccc3c2cc(C#CCNC(=O)c2cnn(C(C)(C)C)c2)n3CC(F)(F)F)[C@@H](F)C1 [Compound 1066A, 1-tert-butyl-N-[3-(4-{[(3S,4R)-3-fluoro-1-methylpiperidin-4-yl]amino}-1-(2,2,2-trifluoroethyl)-1H-indol-2-yl)prop-2-yn-1-yl]-1H-pyrazole-4-carboxamide] | + (+ = 0 μM ≤ SC150 < 0.05 μM)
COCC(O)CN1CCC(Nc2cccc3c2cc(C#CCNc2ccc(S(N)(=O)=O)cc2O)n3CC(F)(F)F)CC1 (centres unmarked) [Compound 634A, 3-hydroxy-4-{[3-(4-{[1-(2-hydroxy-3-methoxypropyl)piperidin-4-yl]amino}-1-(2,2,2-trifluoroethyl)-1H-indol-2-yl)prop-2-yn-1-yl]amino}benzene-1-sulfonamide] | + (+ = 0 μM ≤ SC150 < 0.05 μM)
COc1cc(S(=O)(=O)NC(C)=O)ccc1NCC#Cc1cc2c(N[C@H]3CC[C@H](N4CC5(COC5)C4)CC3)cccc2n1CC(F)(F)F [Compound 208A, N-(3-methoxy-4-{[3-(4-{[(1R,4R)-4-{2-oxa-6-azaspiro[3.3]heptan-6-yl}cyclohexyl]amino}-1-(2,2,2-trifluoro-ethyl)-1H-indol-2-yl)prop-2-yn-1-yl]amino}benzene-sulfonyl)acetamide] | + (+ = 0 μM ≤ SC150 < 0.05 μM)
COc1cc(C(=O)N2CCN(C)CC2)ccc1NCC#Cc1cc2c(NC3CCN(C)CC3)cccc2n1CC(F)(F)F [Compound 501A, 2-(3-{[2-methoxy-4-(4-methylpiperazine-1-carbonyl)phenyl]amino}prop-1-yn-1-yl)-N-(1-methylpiperidin-4-yl)-1-(2,2,2-trifluoroethyl)-1H-indol-4-amine] | + (+ = 0 μM ≤ SC150 < 0.05 μM)
COc1cc(S(C)(=O)=O)ccc1NCC#Cc1cc2c(N[C@H]3CCN(C(C)=O)C[C@H]3F)cccc2n1CC(F)(F)F [Compound 863A, 1-[(3R,4S)-3-fluoro-4-[(2-{3-[(4-methanesulfonyl-2-methoxyphenyl)amino]prop-1-yn-1-yl}-1-(2,2,2-trifluoroethyl)-1H-indol-4-yl)amino]piperidin-1-yl]ethan-1-one] | + (+ = 0 μM ≤ SC150 < 0.05 μM)
COc1cc(S(C)(=O)=O)ccc1NCC#Cc1cc2c(N[C@H]3CC[C@H](N4CCOCC4)CC3)cccc2n1CC(C)C [Compound 179A, 2-{3-[(4-methane-sulfonyl-2-methoxy-phenyl)amino]prop-1-yn-1-yl}-1-(2-methyl-propyl)-N-[(1R,4R)-4-(morpholin-4-yl)cyclohexyl]-1H-indol-4-amine] | ++ (++ = 0.05 μM ≤ SC150 < 0.1 μM)
CNC(=O)c1ccc(NCC#Cc2cc3c(NC4CCN(C(C)C)CC4)cccc3n2CC(F)(F)F)c(OC)c1 [Compound 539A, 3-methoxy-N-methyl-4-{[3-(4-{[1-(propan-2-yl)piperidin-4-yl]amino}-1-(2,2,2-trifluoroethyl)-1H-indol-2-yl)prop-2-yn-1-yl]amino}benzamide] | + (+ = 0 μM ≤ SC150 < 0.05 μM)
CNC(=O)c1ccc(NCC#Cc2cc3c(N[C@H]4CC[C@@H](C#N)CC4)cccc3n2CC(F)(F)F)c(OC)c1 [Compound 35A, 3-methoxy-N-methyl-4-{[3-(4-{[(1S,4S)-4-cyanocyclohexyl]amino}-1-(2,2,2-trifluoroethyl)-1H-indol-2-yl)prop-2-yn-1-yl]amino}benzamide] | + (+ = 0 μM ≤ SC150 < 0.05 μM)

Reference: US12428406B2 (PMV Pharmaceuticals, Inc., priority 2019, dated 2025)
